Source: patent publication US11202748B2, “Photoprotective compositions containing malassezia-derived compounds and/or chemical analogs thereof” (Versicolor Technologies, LLC, priority 2018, dated 2021)

Legend:
[1] = system: MeWo, WM115 and B16F1 cell lines; conditions: expected result
Description: The cell lines MeWo (ATCC® HTB-65™), WM115 (ATCC® CRL-1675) and B16F1 (ATCC® CRL-6323) are maintained in the following culture media: culture medium for MeWo and B16F1: DMEM supplemented with 10% FBS; culture medium for WM115: RPMI 1640 supplemented with 10% FBS.
Cells are harvested and the cell number determined using a Countess Cell Counter. The cells are diluted with culture medium to the desired density. The final cell density may be, for example, 4,000 cells/well for 6 hr and 24 hr treatment, and 2,000 cells/well for 48 hr and 72 hr treatment. For the Annexin V assay, 384-well clear-bottom plates (Corning 3712) are employed, whereas 384-well solid white-bottom plates (Corning 3570) are used for the Caspase-Glo assays. All plates are covered with a lid and placed at 37° C. and 5% CO2 overnight for cell attachment.
Test compounds are dissolved in DMSO to 30 mM stock. 10-fold dilutions are performed to generate 3 mM and 0.3 mM concentrations. […]
For the Annexin V assay, plates are removed from the incubator and culture media is removed. […] Plates are read using ImageXpress Nano.
For the Caspase-Glo assay, plates are removed from the incubator and equilibrated at room temperature for 15 minutes. […] Plates are incubated at room temperature for 15 minutes and read using EnSpire™ plate reader. Fold induction is calculated according to the following formula: Fold induction=LumSample/LumNC.

B16 melanocytes = conditions: expected result
Description: Plating media will include DMEM without L-glutamine, FBS, penicillin/streptomycin, and L-glutamine. Assay media will include DMEM without phenol red and L-glutamine, FBS, penicillin/streptomycin, L-glutamine, and aMSH. Other reagents will include Kojic Acid, DMSO, and MTT. Cells tested will be B16 cells (ATCC CRL-6475).
B16 Melanocytes are cultured until 70% confluent and harvested. Cells are seeded in 96-well plates at a density of 4000 cells/well and are allowed to attach overnight. The following day, test articles and controls are diluted in B16 Assay media. Overnight media is aspirated and 200 ul of test articles and controls are applied. Cells are incubated at 37° C. and 10% CO2 for 72 hours. Following 72-hour incubation, absorbance is read at 540 nm. Media is removed and replaced with 100 ul of plating media containing 1 mg/mL MTT and incubated for 2 hours at 37° C. and 10% CO2. MTT media is removed and replaced with 200 ul of 95% Ethanol/5% Isopropanol and allowed to shake for 15 minutes. MTT absorbance then is read at 570 nm.
B16 Melanocytes are cultured until 70% confluent and harvested. Cells are seeded in 96-well plates at a density of 4000 cells/well and are allowed to attach overnight. The following day, test articles, test compositions, and controls are diluted in B16 Assay media. […] Following 72-hour incubation, absorbance is read at 540 nm. […] MTT absorbance then is read at 570 nm.

[2] = expected result
Description: For the CellTiter-Glo assay, test compounds are prepared in 10 mM DMSO solution. Compounds are serially diluted into 12 concentrations. 40 uL of cells from a 100,000 cell/mL suspension are dispensed into each well of a 384-well plate (Corning 3570). Plates are incubated overnight at 37° C., 5% CO2, and 95% humidity. Test compounds are added, with DMSO as vehicle control. Plates are incubated at 37° C., 5% CO2, and 95% humidity for 6, 24, or 48 hours, and 40 uL of CellTiter-Glo reagent is added to the wells to assess cell viability.

[3] = target: arylhydrocarbon receptor (AhR) (Homo sapiens, UniProt P35869); conditions: expected result
Description: Cultivated cells are rinsed with 5 mL PBS. […] Trypsin is inactivated by adding excess serum-containing media.
Cells are resuspended in seeding media at a proper density.
Compound solutions are transferred into the assay plate using Echo550. The plate is then placed back into the incubator for compound treatment.
Afterward, stock solutions of test compounds, test compositions, and omeprazole positive control are prepared. Compound and compositions solutions are transferred into the assay plate using Echo550. The plate is then placed back into the incubator for compound/composition treatment.

[4] = system: arylhydrocarbon receptor (AhR); conditions: cited from earlier work

Sequence of arylhydrocarbon receptor (AhR) (Homo sapiens, UniProt P35869) (P35869 11-848): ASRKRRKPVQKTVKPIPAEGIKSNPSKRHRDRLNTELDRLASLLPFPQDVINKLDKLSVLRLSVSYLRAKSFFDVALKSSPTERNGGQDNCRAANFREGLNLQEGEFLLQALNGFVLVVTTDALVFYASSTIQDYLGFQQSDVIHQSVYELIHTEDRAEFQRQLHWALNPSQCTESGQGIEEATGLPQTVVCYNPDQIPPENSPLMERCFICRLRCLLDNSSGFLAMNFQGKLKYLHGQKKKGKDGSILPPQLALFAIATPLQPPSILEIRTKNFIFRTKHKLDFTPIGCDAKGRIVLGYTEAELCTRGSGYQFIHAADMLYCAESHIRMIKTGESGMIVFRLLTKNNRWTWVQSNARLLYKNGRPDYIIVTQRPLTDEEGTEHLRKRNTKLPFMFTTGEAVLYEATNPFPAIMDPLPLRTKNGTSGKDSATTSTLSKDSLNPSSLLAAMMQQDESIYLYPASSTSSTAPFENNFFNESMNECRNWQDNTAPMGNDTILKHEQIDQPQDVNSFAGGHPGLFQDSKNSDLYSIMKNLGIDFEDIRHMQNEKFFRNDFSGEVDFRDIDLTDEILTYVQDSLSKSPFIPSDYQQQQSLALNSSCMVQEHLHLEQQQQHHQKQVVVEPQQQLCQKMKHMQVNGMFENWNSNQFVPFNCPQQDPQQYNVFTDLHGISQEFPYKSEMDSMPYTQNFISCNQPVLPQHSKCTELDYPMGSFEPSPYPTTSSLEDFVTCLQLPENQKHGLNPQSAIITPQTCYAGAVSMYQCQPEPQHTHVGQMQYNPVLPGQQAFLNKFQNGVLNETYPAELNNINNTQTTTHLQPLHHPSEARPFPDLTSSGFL

Structure (SMILES)	cell death / apoptosis induction [1]	melanogenesis inhibition (B16 melanocytes)	cell death (cell viability) [2]	AhR activity modulation [3]	AhR agonist activity [4]
O=C1Nc2ccccc2/C1=C1/Nc2ccccc2C1=O [Indirubin]	will induce cell death	will inhibit melanogenesis	will induce cell death	will modulate AhR activity	known agonist
O=Cc1c(Cc2c[nH]c3ccccc23)[nH]c2ccccc12 [Malassezin, 2-(1H-indol-3-ylmethyl)-1H-indole-3-carbaldehyde]	–	–	–	–	known agonist
